Laboratory results reported in publication PMC9320654 (Toxins, 2022).
Structures can show the parent of a compound that is named as a salt.

Legend:
[1] = target: T1, CYP2C9 (Homo sapiens, UniProt P11712); assay type: in vitro ADME; details: CYP2C9 in HLM; positive control, final conc. 3 μM in Table S1
T1 construct: tissue Corning or Xenotech; host or cells: human liver microsomes (mixed gender)
Procedure: A mixture of microsomes and substrates for each CYP isozyme were prepared individually in 100 mM potassium phosphate buffer at pH 7.4. […] The reaction mixture was incubated for 10 min, followed by the addition of 20 μL of 10 mM NADPH solution. […] At the appropriate time point, we terminated the reaction by adding 400 µL of cold stop solution (200 ng/mL tolbutamide and labetalol in acetonitrile). The samples were centrifuged at 4000 rpm for 20 min to precipitate the protein, and then detected by LC/MS/MS. XL fit was used to plot the percent of vehicle control versus the test compound concentrations and for nonlinear regression analysis of the data. The IC50 values were determined using 3- or 4-parameter logistic equations.

[2] = Plasma stability, dog plasma; assay type: in vitro ADME; details: beagle
Procedure: (§1) The pooled frozen plasma was thawed in a water bath at 37 °C prior to the experiment. Plasma was centrifuged at 4000 rpm for 5 min, and the clots, if any, were removed. Using an Apricot automation workstation, blank plasma (98 μL/well) was added to six 96-well reaction plates (Blank, T0, T10, T30, T60, and T120). An Apricot automation workstation was used to add working solution (2 μL/well, 100 μM) to all reaction plates except the Blank plate (T0, T10, T30, T60, and T120). All reaction plates containing mixtures of compound and plasma were incubated at 37 °C in a water bath. At the end of the incubation, 400 μL of stop solution (200 ng/mL tolbutamide and 200 ng/mL labetalol in acetonitrile) was added to precipitate the protein, and the mixture was mixed thoroughly. Samples were then vortexed and centrifuged (20 min, 4000 rpm, 4 °C). After centrifugation, an Apricot automation workstation was used to transfer 50 μL of supernatant into 100 μL of HPLC water. […] Each bioanalysis plate was sealed and shaken for 10 min prior to LC-MS/MS analysis. The % remaining test compound after incubation in plasma was calculated using the following equation:(11) % Remaining= PAR at appointed incubation time/PAR at T0 time×100 where PAR is the peak area ratio of analyte versus internal standard (IS).
(§2) The appointed incubation time points are T0 (0 min), Tn (n = 0, 10, 30, 60, 120 min).

[3] = Metabolic stability in liver microsomes, DLM; assay type: in vitro ADME, beagle dog
Procedure: (§3) All incubations were performed at 37 °C in 100 mM potassium phosphate buffer in an orbital incubator. Various nicotinamide adenine dinucleotide phosphate (NADPH) concentrations were tried to optimize the method. […]. The positive control compound testosterone was incubated in parallel with the BEA samples. Each bioanalysis plate was sealed and shaken for 10 min prior to LC-MS/MS analysis (Table S6). […]

[4] = Metabolic stability in liver microsomes, MLM; assay type: in vitro ADME, CD-1 mouse
Procedure: (§4) All incubations were performed at 37 °C in 100 mM potassium phosphate buffer in an orbital incubator. Various nicotinamide adenine dinucleotide phosphate (NADPH) concentrations were tried to optimize the method. […] Samples were withdrawn from the reaction mixture at different times (5, 15, 30, 45, and 60 min), and the reaction was terminated using acetonitrile. […] Each bioanalysis plate was sealed and shaken for 10 min prior to LC-MS/MS analysis (Table S6).

[5] = Metabolic stability in liver microsomes, CLM; assay type: in vitro ADME, cynomolgus monkey
Procedure: as §4

[6] = Metabolic stability in liver microsomes, RLM; assay type: in vitro ADME, Sprague Dawley rat
Procedure: as §3

[7] = Plasma protein binding (HTdialysis equilibrium dialysis), monkey plasma; assay type: in vitro ADME, cynomolgus monkey; details: pH 7.4, read-out: Fu (%), unbound fraction
[8] = Plasma protein binding (HTdialysis equilibrium dialysis), rat plasma; assay type: in vitro ADME; details: Sprague Dawley, pH 7.4, read-out: Fu (%), unbound fraction
[9] = Plasma protein binding (HTdialysis equilibrium dialysis), dog plasma; assay type: in vitro ADME; details: beagle, pH 7.4, read-out: Fu (%), unbound fraction
[10] = Plasma protein binding (HTdialysis equilibrium dialysis), mouse plasma; assay type: in vitro ADME, CD-1 mouse; details: CD-1, pH 7.4, read-out: Fu (%), unbound fraction
[11] = Plasma stability, monkey plasma; assay type: in vitro ADME; details: cynomolgus
Procedure: as §1, §2

[12] = Plasma stability, mouse plasma; assay type: in vitro ADME
Procedure: as §1, §2

[13] = Plasma stability, human plasma; assay type: in vitro ADME
Procedure: as §1, §2

[14] = system: CYP3A4/5; details: ref 20 (Li Mei's group); cited from earlier work
[15] = Metabolic stability in cryopreserved hepatocytes, human; assay type: in vitro ADME
Procedure: (§5) Hepatocyte metabolic stability was evaluated in cryopreserved hepatocytes from CD-1 mice (Lot#: EXR), Sprague Dawley rats (Lot#: OSQ), beagle dogs (Lot#: ZMB), cynomolgus monkeys (Lot#: KMS), and human donors (Lot#: AEL) obtained from Bioreclamation IVT, LLC (Shanghai, China). […] Samples were withdrawn from the reaction mixture at 0, 15, 30, 60, and 90 min and were quenched with stop solution (acetonitrile containing 200 ng/mL tolbutamide and 200 ng/mL labetalol as internal standards). A cocktail of 7-ethoxycoumarin (Lot#: I1825085) was used as the positive control for the assay. The analytical plates were sealed and stored at 4 °C until LC-MS/MS analysis.
(§6) The remaining percentages of test articles after incubation were calculated by the following equations:(7) %Remainingat Appointed Time=Peak Area Ratios of Test Article versus Internal Standard at Appointed Time/Peak Area Ratios of Test Article versus Internal Standard 0 min
(§7) We used the equation of first order kinetics to calculate T1/2 and CLint:
(§8) Equation of first-order kinetics:(8) Ct=C0·e^−k·t when Ct=1/2C0,T1/2=ln2/k=0.693/k (9) CLint hep=k/million cells per mL (10) CLint liver=CLint hep×Liver weight g/kg body weight×hepatocellularity

[16] = Metabolic stability in cryopreserved hepatocytes, mouse; assay type: in vitro ADME, CD-1 mouse
Procedure: as §5, §6, §7, §8

[17] = Metabolic stability in cryopreserved hepatocytes, rat; assay type: in vitro ADME, Sprague Dawley rat
Procedure: as §5, §6, §7, §8

[18] = Metabolic stability in cryopreserved hepatocytes, dog; assay type: in vitro ADME, beagle dog
Procedure: as §5, §6, §7, §8

[19] = Metabolic stability in cryopreserved hepatocytes, monkey; assay type: in vitro ADME, cynomolgus monkey
Procedure: as §5, §6, §7, §8

[20] = Plasma stability, rat plasma; assay type: in vitro ADME
Procedure: as §1, §2

[21] = Metabolite identification by LC-UV-MS^n in dog liver microsomes; assay type: in vitro ADME; design: key: +: metabolite was detected in liver microsomes; -: metabolite was detected in liver microsomes; details: BEA 10 µM, 37 °C, 60 min
Procedure: (§9) The positive control, 7-ethoxycoumarin (7-EC) at 10 µM, was run concurrently to assess Phase I metabolic activities in liver microsomes. […] After incubation, the samples were analyzed by LC-UV-MS (Table S7). The structures of the metabolites were proposed based on the interpretation of their MS and MS2 data. The results are presented in Table 6 and Figure 6. %Total=Peak Area of a Releted Component/Peak Area of Total Releted Component×100%

[22] = Metabolite identification by LC-UV-MS^n in human liver microsomes; assay type: in vitro ADME; design: key: +: metabolite was detected in liver microsomes; -: metabolite was not detected in liver microsomes; details: BEA 10 µM, 37 °C, 60 min
Procedure: as §9

[23] = Metabolite identification by LC-UV-MS^n in rat liver microsomes; assay type: in vitro ADME; design: key: +: metabolite was detected in liver microsomes; -: metabolite was detected in liver microsomes; details: BEA 10 µM, 37 °C, 60 min
Procedure: as §9

[24] = Metabolite identification by LC-UV-MS^n in mouse liver microsomes; assay type: in vitro ADME; design: key: +: metabolite was detected in liver microsomes; -: metabolite was detected in liver microsomes; details: BEA 10 µM, 37 °C, 60 min
Procedure: as §9

[25] = Metabolite identification by LC-UV-MS^n in monkey liver microsomes; assay type: in vitro ADME; design: key: +: metabolite was detected in liver microsomes; -: metabolite was not detected in liver microsomes; details: BEA 10 µM, 37 °C, 60 min
Procedure: as §9

[26] = 120 min, read-out: Remaining % (T = 120 min)

T1 sequence (P11712 whole entry): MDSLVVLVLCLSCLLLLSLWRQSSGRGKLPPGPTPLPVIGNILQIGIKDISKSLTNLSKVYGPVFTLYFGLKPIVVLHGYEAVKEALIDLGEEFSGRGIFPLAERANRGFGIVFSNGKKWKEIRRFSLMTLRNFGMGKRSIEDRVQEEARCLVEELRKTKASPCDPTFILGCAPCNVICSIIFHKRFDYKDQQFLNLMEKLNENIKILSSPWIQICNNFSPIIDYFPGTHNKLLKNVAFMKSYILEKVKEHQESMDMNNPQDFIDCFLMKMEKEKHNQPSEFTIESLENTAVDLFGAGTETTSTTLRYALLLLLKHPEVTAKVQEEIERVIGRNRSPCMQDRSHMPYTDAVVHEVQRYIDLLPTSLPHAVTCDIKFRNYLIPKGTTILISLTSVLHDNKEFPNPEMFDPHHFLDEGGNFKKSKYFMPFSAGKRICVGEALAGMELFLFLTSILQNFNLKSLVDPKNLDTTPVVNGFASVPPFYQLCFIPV

In the case of Nc1ccc(S(=O)(=O)Nc2ccnn2-c2ccccc2)cc1 [Sulfaphenazole], the “Activity (% VC)” value [1] was 20.0 % VC.
CC(=O)Oc1ccc(C(c2ccc(OC(C)=O)cc2)c2ccccn2)cc1 [Bisacodyl] showed a half-life at 2 μM ([2]; 37 °C, n = 2) of 7.2 min and a remaining at 2 h, 2 μM [2, 26] of 0%.
With C[C@]12CC[C@H]3[C@@H](CCC4=CC(=O)CC[C@@]43C)[C@@H]1CC[C@@H]2O [Testosterone] the “T1/2” value ([3]; DLM, 1 μM, NADPH, n = 2) was 20.0 min, the microsomal CLint at 1 μM ([3]; beagle, dog, microsomes, DLM, read-out: CLint(mic)) was 69.2 µL/min/mg and the CLint scaled at 1 μM ([3]; beagle, dog, microsomes, scaled from DLM CLint(mic)) was 99.6 mL/min/kg. For the same compound, the half-life at 1 μM ([4]; CD-1, mouse, liver microsomes, MLM, 1 μM, NADPH, n = 2) was 3.9 min, the microsomal CLint at 1 μM ([4]; CD-1, mouse, liver microsomes, MLM, read-out: CLint(mic)) was 359 µL/min/mg and the CLint scaled at 1 μM ([4]; CD-1, mouse, liver microsomes, scaled from MLM CLint(mic)) was 1420 mL/min/kg. For the same compound, the “Remaining % (T = 60 min)” value ([4]; MLM, 60 min) was 0.0%, the “Remaining % (T = 60 min)” value ([5]; CLM, 60 min) was 0.0% and the half-life at 1 μM ([5]; cynomolgus monkey, liver microsomes, CLM, 1 μM, NADPH, n = 2) was 5 min. For the same compound, the microsomal CLint at 1 μM ([5]; cynomolgus monkey, liver microsomes, CLM, read-out: CLint(mic)) was 277 µL/min/mg, the CLint scaled at 1 μM ([5]; cynomolgus monkey, liver microsomes, scaled from CLM CLint(mic)) was 374 mL/min/kg and the “Remaining % (T = 60 min)” value ([6]; RLM, 60 min) was 0.0%. For the same compound, the microsomal CLint at 1 μM ([6]; Sprague Dawley, rat, microsomes, RLM, read-out: CLint(mic)) was 1370 µL/min/mg and the CLint scaled at 1 μM ([6]; Sprague Dawley, rat, microsomes, scaled from RLM CLint(mic)) was 2470 mL/min/kg.
Work on CC(=O)CC(c1ccccc1)c1c(O)c2ccccc2oc1=O (stereo not shown) [warfarin] yielded a fraction unbound at 5 h [7] of 0.0084, a fraction unbound at 5 h [8] of 0.0052 and a fraction unbound at 5 h [9] of 0.0246. For the same compound, the fraction unbound at 5 h [10] was 0.0271.
Compound CCN(CC)CCOC(=O)c1ccc(N)cc1 [Procaine Hydrochloride] has a half-life at 2 μM ([11]; 37 °C, n = 2) of 4.4 min and a remaining at 2 h, 2 μM [11, 26] of 0%.
For CC(C)[N+](C)(CCOC(=O)C1c2ccccc2Oc2ccccc21)C(C)C [Propantheline bromide], the half-life at 2 μM ([12]; CD-1, 37 °C, n = 2) was 36.6 min, the remaining at 2 h, 2 μM ([12]; CD-1, 120 min, read-out: Remaining % (T = 120 min)) was 9.7% and the half-life at 2 μM ([13]; 37 °C, n = 2) was 10.3 min. For the same compound, the remaining at 2 h, 2 μM [13, 26] was 0%.
In the case of Beauvericin, the “Inhibition mechanism, CYP3A4” value [14] is listed as “mix-type”.
In the case of CCOc1ccc2ccc(=O)oc2c1 [7-Ethoxycoumarin], the half-life at 1 μM ([15]; cryopreserved hepatocytes (suspension), human hepatocytes, 0.5 × 10^6 cells/mL, 1 μM, n = 2) was 41.6 min, the remaining at 1.5 h, 1 μM ([15]; cryopreserved hepatocytes in suspension, human hepatocytes, 90 min, read-out: Remaining % (T = 90 min)) was 21.9% and the CLint scaled at 1 μM ([15]; cryopreserved hepatocytes in suspension, scaled from human hepatocyte CLint, read-out: CLint (liver)) was 92.6 mL/min/kg. For the same compound, the “CLint (hep) (μL/min/10^6)” value ([15]; human hepatocytes) was 33.3 μL/min/10^6, the half-life at 1 μM ([16]; CD-1, cryopreserved hepatocytes (suspension), mouse hepatocytes, 0.5 × 10^6 cells/mL, 1 μM, n = 2) was < 7.5 min and the CLint scaled at 1 μM ([16]; CD-1, cryopreserved hepatocytes in suspension, scaled from mouse hepatocyte CLint, read-out: CLint (liver)) was > 2200 mL/min/kg. The “CLint (hep) (μL/min/10^6)” value ([16]; mouse hepatocytes) was >184.8 μL/min/10^6, the “Remaining % (T = 90 min)” value ([16]; mouse hepatocytes, 90 min) was 0.0% and the half-life at 1 μM ([17]; Sprague Dawley, cryopreserved hepatocytes (suspension), rat hepatocytes, 0.5 × 10^6 cells/mL, 1 μM, n = 2) was 18.2 min. For the same compound, the remaining at 1.5 h, 1 μM ([17]; Sprague Dawley, cryopreserved hepatocytes in suspension, rat hepatocytes, 90 min, read-out: Remaining % (T = 90 min)) was 2.1%, the CLint scaled at 1 μM ([17]; Sprague Dawley, cryopreserved hepatocytes in suspension, scaled from rat hepatocyte CLint, read-out: CLint (liver)) was 356 mL/min/kg and the “CLint (hep) (μL/min/10^6)” value ([17]; rat hepatocytes) was 76.0 μL/min/10^6. The half-life at 1 μM ([18]; beagle, cryopreserved hepatocytes in suspension, dog hepatocytes, 0.5 × 10^6 cells/mL, 1 μM, n = 2) was 5.4 min, the CLint scaled at 1 μM ([18]; beagle, cryopreserved hepatocytes in suspension, scaled from dog hepatocyte CLint, read-out: CLint (liver)) was 1760 mL/min/kg and the “CLint (hep) (μL/min/10^6)” value ([18]; dog hepatocytes) was 256.4 μL/min/10^6. The “Remaining % (T = 90 min)” value ([18]; dog hepatocytes, 90 min) was 0.0%, the half-life at 1 μM ([19]; cryopreserved hepatocytes in suspension, monkey hepatocytes, 0.5 × 10^6 cells/mL, 1 μM, n = 2) was 13.6 min and the CLint scaled at 1 μM ([19]; cynomolgus monkey, cryopreserved hepatocytes in suspension, scaled from monkey hepatocyte CLint, read-out: CLint (liver)) was 367 mL/min/kg. For the same compound, the “CLint (hep) (μL/min/10^6)” value ([19]; monkey hepatocytes) was 102.0 μL/min/10^6 and the “Remaining % (T = 90 min)” value ([19]; monkey hepatocytes, 90 min) was 0.0%.
With CCOC(=O)[C@H](CCc1ccccc1)N[C@@H](C)C(=O)N1CCC[C@H]1C(=O)O.O=C(O)/C=C\C(=O)O [Enalapril maleate salt] the “T1/2” value ([20]; 37 °C, n = 2) was 12.8 min and the “Remaining % (T = 120 min)” value ([20]; 120 min) was 0.2%.
For CC(C)[C@H]1OC(=O)[C@H](Cc2ccccc2)N(C)C(=O)[C@@H](C(C)C)OC(=O)[C@H](Cc2ccccc2)N(C)C(=O)[C@@H](C(C)C)OC(=O)[C@H](Cc2ccccc2)NC1=O [M15], the “Detected in liver microsomes: Dog” value [21] was “+”, the “Detected in liver microsomes: Human” value [22] was “+” and the “Detected in liver microsomes: Rat” value [23] was “+”. For the same compound, the “Detected in liver microsomes: Mouse” value [24] was “+” and the “Detected in liver microsomes: Monkey” value [25] was “+”.
